# Reference: patent publication US8648086B2, “5,6-bicyclic heteroaryl-containing urea compounds as kinase inhibitors” (Ascepion Pharmaceuticals, Inc., priority 2009, dated 2014)
# Structures can show the parent of a compound that is named as a salt.
# How the values were obtained:
# VEGFR2 = molecular target: T1, VEGFR2 (Homo sapiens, UniProt P35968); test: VEGFR2 cell-based assay (phospho-VEGFR2 ELISA, transfected CHO cells); conditions: compound at 100 nM, read-out: % VEGFR2 kinase activity remains
# T1 construct: expressed in transfected cells; host or cells: CHO cells, pcDNA3.1 plasmid
# T1 sequence (P35968 20-1356, species assumed): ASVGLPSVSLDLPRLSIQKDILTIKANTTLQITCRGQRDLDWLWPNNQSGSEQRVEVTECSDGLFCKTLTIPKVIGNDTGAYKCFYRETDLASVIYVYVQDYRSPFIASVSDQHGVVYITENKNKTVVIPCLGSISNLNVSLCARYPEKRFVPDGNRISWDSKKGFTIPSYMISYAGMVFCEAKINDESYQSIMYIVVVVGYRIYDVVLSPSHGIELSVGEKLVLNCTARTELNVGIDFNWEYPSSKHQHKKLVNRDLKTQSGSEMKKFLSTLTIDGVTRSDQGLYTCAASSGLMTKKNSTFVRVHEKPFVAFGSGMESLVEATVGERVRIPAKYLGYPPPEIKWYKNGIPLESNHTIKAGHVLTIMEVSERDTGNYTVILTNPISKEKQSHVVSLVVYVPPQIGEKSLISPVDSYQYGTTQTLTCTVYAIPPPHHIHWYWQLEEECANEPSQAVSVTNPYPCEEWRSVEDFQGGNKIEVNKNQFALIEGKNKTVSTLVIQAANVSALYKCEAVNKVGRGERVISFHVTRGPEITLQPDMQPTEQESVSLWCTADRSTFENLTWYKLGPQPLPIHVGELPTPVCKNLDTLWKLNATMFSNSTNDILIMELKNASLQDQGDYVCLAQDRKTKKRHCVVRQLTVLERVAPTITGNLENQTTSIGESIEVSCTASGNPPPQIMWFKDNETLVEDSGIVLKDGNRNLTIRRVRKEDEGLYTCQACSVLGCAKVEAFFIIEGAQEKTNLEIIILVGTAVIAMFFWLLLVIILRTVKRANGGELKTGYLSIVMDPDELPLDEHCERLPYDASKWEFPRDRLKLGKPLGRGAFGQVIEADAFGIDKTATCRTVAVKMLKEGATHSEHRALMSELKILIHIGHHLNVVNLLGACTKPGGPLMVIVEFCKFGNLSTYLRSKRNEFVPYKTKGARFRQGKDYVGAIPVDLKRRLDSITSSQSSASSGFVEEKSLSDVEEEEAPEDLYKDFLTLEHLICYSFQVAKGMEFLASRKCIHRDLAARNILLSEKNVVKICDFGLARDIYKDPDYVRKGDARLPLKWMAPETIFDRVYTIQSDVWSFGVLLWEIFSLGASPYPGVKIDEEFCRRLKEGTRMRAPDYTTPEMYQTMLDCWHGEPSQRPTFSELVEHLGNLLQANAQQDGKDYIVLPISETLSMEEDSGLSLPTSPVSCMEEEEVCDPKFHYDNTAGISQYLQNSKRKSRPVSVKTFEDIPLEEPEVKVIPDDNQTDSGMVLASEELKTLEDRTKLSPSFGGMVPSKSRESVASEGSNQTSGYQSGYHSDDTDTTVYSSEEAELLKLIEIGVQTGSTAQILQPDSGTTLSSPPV
# Method: A standard cell-based assay for VEGFR2 kinase activity can be used to test compounds of this invention and to identify VEGFR2 antagonists.
# Specifically, a compound to be tested was first dissolved in DMSO to a concentration of 10 mM and stored at −20° C. The activity of VEGFR2 in cells depends on the phosphorylation level at its intracellular domain induced by the ligand. In order to express VEGFR2 in the cells, full length VEGFR2 sequence was cloned into PC-DNA3.1 vector, the plasmid was then transfected into CHO cells. After 48 hours, the expression of VEGFR2 in transfected CHO cells was confirmed by regular western blotting.
# To screen the compounds of this invention, the ELISA kit (R&D Systems) was used. One day before the screening, CHO cells transfected with full length VEGFR2 plasmid were grown in DMEM medium without the presence of serum. On the day of screening, various concentrations of compounds (From 0.5 nM to 500 nM) were added into DMEM medium. Two hours later, 20% of FBS (Fetal Bovine Serum) was added into the medium to stimulate the production of phosphor-VEGFR2. Cell lysate from approximately 5×10^5 transfected CHO cells were reacted with anti-phosphor-VEGFR2 or anti-total VEGFR2 antibody in 96 well plates. In the presence of detection antibody, the phosphor-VEGFR2 or total VEGFR2 were detected with Streptavidin-HRP (R&D Systems) followed by chemiluminescence detection.
# c-Met = molecular target: T2, c-Met (Homo sapiens, UniProt P08581); test: c-Met cell-based assay (phospho-c-Met ELISA, A549 cells); conditions: compound at 100 nM
# T2 construct: endogenous in cells; host or cells: A549 cells
# T2 sequence (P08581 25-1390): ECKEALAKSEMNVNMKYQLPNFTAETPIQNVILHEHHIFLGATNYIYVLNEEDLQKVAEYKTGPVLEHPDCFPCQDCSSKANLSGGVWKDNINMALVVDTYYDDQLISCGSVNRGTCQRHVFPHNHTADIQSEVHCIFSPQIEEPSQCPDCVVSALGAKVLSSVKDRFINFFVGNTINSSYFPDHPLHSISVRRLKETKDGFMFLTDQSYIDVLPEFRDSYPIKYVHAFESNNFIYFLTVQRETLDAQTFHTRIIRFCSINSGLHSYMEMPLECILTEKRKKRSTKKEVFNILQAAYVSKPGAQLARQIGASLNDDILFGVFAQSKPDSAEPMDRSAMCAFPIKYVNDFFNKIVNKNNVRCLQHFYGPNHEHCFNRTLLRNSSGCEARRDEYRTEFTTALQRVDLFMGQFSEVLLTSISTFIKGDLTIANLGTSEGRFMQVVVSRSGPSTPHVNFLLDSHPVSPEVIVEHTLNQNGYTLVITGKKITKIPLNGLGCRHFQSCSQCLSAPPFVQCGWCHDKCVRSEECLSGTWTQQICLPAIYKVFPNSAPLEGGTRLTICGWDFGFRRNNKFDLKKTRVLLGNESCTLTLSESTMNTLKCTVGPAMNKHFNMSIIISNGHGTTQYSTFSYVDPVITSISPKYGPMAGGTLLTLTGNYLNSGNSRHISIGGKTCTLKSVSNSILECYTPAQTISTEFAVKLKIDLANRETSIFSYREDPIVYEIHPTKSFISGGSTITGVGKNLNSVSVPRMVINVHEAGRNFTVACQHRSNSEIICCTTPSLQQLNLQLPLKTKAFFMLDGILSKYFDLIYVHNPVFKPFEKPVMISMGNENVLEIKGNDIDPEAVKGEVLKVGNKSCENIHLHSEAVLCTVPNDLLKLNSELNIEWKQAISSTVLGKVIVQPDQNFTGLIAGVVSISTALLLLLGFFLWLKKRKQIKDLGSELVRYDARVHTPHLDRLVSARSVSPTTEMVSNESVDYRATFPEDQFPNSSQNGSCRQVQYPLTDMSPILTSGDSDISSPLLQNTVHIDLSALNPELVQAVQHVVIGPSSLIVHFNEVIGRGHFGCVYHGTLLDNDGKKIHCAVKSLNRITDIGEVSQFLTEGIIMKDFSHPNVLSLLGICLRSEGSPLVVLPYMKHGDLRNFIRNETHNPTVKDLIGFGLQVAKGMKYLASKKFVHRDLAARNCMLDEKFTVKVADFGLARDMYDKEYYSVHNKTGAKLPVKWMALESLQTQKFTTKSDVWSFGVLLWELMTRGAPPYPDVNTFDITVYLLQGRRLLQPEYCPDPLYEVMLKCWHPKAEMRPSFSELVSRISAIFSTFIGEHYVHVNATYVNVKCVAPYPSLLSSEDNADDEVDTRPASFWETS
# Method: A procedure for standard cell-based assay for c-Met kinase activity can be used to test compounds of this invention for their inhibitory effect on this kinase and to identify c-Met antagonists.
# Specifically, a compound to be tested was first dissolved in DMSO to a concentration of 10 mM and stored at −20° C. The activity of c-Met in cells depends on the phosphorylation level at its intracellular domain induced by its ligand, Hepatocyte growth factor (HGF). In order to induce the cells to produce phosphate c-Met, paracrine HGF-dependent NSCLC (None Small Cell Lung Cancer) A549 cells were grown in DMEM with 10% FBS.
# To screen compounds of this invention for their inhibitory effect on c-Met kinase, the ELISA kit (R&D Systems) was used. One day before screening procedure, A549 cells were grown in DMEM without the presence of serum. On the day of screening procedure, various concentrations of compounds (from 0.5 nM to 500 nM) were added into the culture medium. Two hours later, 20% of FBS (Fetal Bovine Serum) was added into the medium to stimulate the expression of phosphor-c-Met. After 20 minutes, cell lysate from approximately 5×10^5 A549 cells were reacted with anti-phosphor-c-Met or anti total c-Met antibody in 96 well plates. In the presence of detection antibody, the phosphor-c-Met or total c-Met can be detected with Streptavidin-HRP (R&D Systems) followed by chemiluminescence detection.
Structure (SMILES),remaining activity at 0.1 µM (VEGFR2) [%],% c-Met kinase activity remains (c-Met)
"Cl.O=C(Nc1ccccc1Br)Nc1cccc2c1ccn2Cc1ccnc2[nH]ccc12 [Example 40, 1-(2-Bromophenyl)-3-[1-(1H-pyrrolo[2,3-b]pyridin-4-ylmethyl)-1H-indol-4-yl]urea hydrochloride]",< 70,A (the percentage of kinase activity remains is below 70%)
"Cl.N#Cc1ccc(NC(=O)Nc2cccc3c2ccn3Cc2c[nH]c3ncccc23)cc1 [Example 27, 1-(4-Cyanophenyl)-3-[1-(1H-pyrrolo[2,3-b]pyridin-3-ylmethyl)-1H-indol-4-yl]urea hydrochloride]",< 70,A (the percentage of kinase activity remains is below 70%)
"Cl.O=C(Nc1ccccc1OC(F)(F)F)Nc1cccc2c1ccn2Cc1c[nH]c2ncccc12 [Example 20, 1-(2-Trifluoromethoxyphenyl)-3-[1-(1H-pyrrolo[2,3-b]pyridin-3-ylmethyl)-1H-indol-4-yl]urea hydrochloride]",< 70,A (the percentage of kinase activity remains is below 70%)
"Cc1ccc(NC(=O)Nc2cccc3c2ccn3Cc2c[nH]c3ncccc23)cc1.Cl [Example 16, 1-(4-Methylphenyl)-3-[1-(1H-pyrrolo[2,3-b]pyridin-3-ylmethyl)-1H-indol-4-yl]urea hydrochloride]",≥ 70,A (the percentage of kinase activity remains is below 70%)
"Cl.O=C(Nc1cccc(Br)c1)Nc1cccc2c1ccn2Cc1ccnc2[nH]ccc12 [Example 41, 1-(3-Bromophenyl)-3-[1-(1H-pyrrolo[2,3-b]pyridin-4-ylmethyl)-1H-indol-4-yl]urea hydrochloride]",≥ 70,B (the percentage is greater or equal to 70%)
"Cl.O=C(Nc1ccc(Br)cc1)Nc1cccc2c1ccn2Cc1ccnc2[nH]ccc12 [Example 42, 1-(4-Bromophenyl)-3-[1-(1H-pyrrolo[2,3-b]pyridin-4-ylmethyl)-1H-indol-4-yl]urea hydrochloride]",< 70,B (the percentage is greater or equal to 70%)
"Cc1ccccc1NC(=O)Nc1cccc2c1ccn2Cc1c[nH]c2ncccc12.Cl [Example 14, 1-(2-Methylphenyl)-3-[1-(1H-pyrrolo[2,3-b]pyridin-3-ylmethyl)-1H-indol-4-yl]urea hydrochloride]",< 70,A (the percentage of kinase activity remains is below 70%)
"COc1cccc(NC(=O)Nc2cccc3c2ccn3Cc2c[nH]c3ncccc23)c1.Cl [Example 18, 1-(3-Methoxyphenyl)-3-[1-(1H-pyrrolo[2,3-b]pyridin-3-ylmethyl)-1H-indol-4-yl]urea hydrochloride]",< 70,A (the percentage of kinase activity remains is below 70%)
"COc1ccccc1NC(=O)Nc1cccc2c1ccn2Cc1c[nH]c2ncccc12.Cl [Example 17, 1-(2-Methoxyphenyl)-3-[1-(1H-pyrrolo[2,3-b]pyridin-3-ylmethyl)-1H-indol-4-yl]urea hydrochloride]",< 70,A (the percentage of kinase activity remains is below 70%)
"Cc1ccc(NC(=O)Nc2cccc3c2ccn3Cc2ccnc3[nH]ccc23)cc1.Cl [Example 45, 1-(4-Methylphenyl)-3-[1-(1H-pyrrolo[2,3-b]pyridin-4-ylmethyl)-1H-indol-4-yl]urea hydrochloride]",< 70,A (the percentage of kinase activity remains is below 70%)
"Cl.O=C(Nc1ccc(F)cc1)Nc1cccc2c1ccn2Cc1c[nH]c2ncccc12 [Example 7, 1-(4-Fluorophenyl)-3-[1-(1H-pyrrolo[2,3-b]pyridin-3-ylmethyl)-1H-indol-4-yl]urea hydrochloride]",< 70,A (the percentage of kinase activity remains is below 70%)
"Cc1c(F)cccc1NC(=O)Nc1cccc2c1ccn2Cc1ccnc2[nH]ccc12.Cl [Example 59, 1-(2-Methyl-3-fluorophenyl)-3-[1-(1H-pyrrolo[2,3-b]pyridin-4-ylmethyl)-1H-indol-4-yl]urea hydrochloride]",< 70,A (the percentage of kinase activity remains is below 70%)
"O=C(Nc1ccccc1Cl)Nc1cccc2c1ccn2Cc1ccnc2[nH]ccc12 [Example 37, 1-(2-Chlorophenyl)-3-[1-(1H-pyrrolo[2,3-b]pyridin-4-ylmethyl)-1H-indol-4-yl]urea hydrochloride]",< 70,A (the percentage of kinase activity remains is below 70%)
"Cc1cccc(NC(=O)Nc2cccc3c2ccn3Cc2c[nH]c3ncccc23)c1.Cl [Example 15, 1-(3-Methylphenyl)-3-[1-(1H-pyrrolo[2,3-b]pyridin-3-ylmethyl)-1H-indol-4-yl]urea hydrochloride]",< 70,A (the percentage of kinase activity remains is below 70%)
"Cc1ccc(Br)c(NC(=O)Nc2cccc3c2ccn3Cc2ccnc3[nH]ccc23)c1.Cl [Example 58, 1-(2-Bromo-5-methylphenyl)-3-[1-(1H-pyrrolo[2,3-b]pyridin-4-ylmethyl)-1H-indol-4-yl]urea hydrochloride]",< 70,A (the percentage of kinase activity remains is below 70%)
"Cl.O=C(Nc1cccc(C(F)(F)F)c1)Nc1cccc2c1ccn2Cc1c[nH]c2ncccc12 [Example 24, 1-(3-Trifluoromethylphenyl)-3-[1-(1H-pyrrolo[2,3-b]pyridin-3-ylmethyl)-1H-indol-4-yl]urea hydrochloride]",< 70,A (the percentage of kinase activity remains is below 70%)
"Cl.N#Cc1cccc(NC(=O)Nc2cccc3c2ccn3Cc2c[nH]c3ncccc23)c1 [Example 26, 1-(3-Cyanophenyl)-3-[1-(1H-pyrrolo[2,3-b]pyridin-3-ylmethyl)-1H-indol-4-yl]urea hydrochloride]",≥ 70,A (the percentage of kinase activity remains is below 70%)
"O=C(Nc1ccccc1Cl)Nc1cccc2c1ccn2Cc1c[nH]c2ncccc12 [Example 8, 1-(2-Chlorophenyl)-3-[1-(1H-pyrrolo[2,3-b]pyridin-3-ylmethyl)-1H-indol-4-yl]urea hydrochloride]",≥ 70,A (the percentage of kinase activity remains is below 70%)
"Cl.O=C(Nc1ccc(C(F)(F)F)cc1)Nc1cccc2c1ccn2Cc1c[nH]c2ncccc12 [Example 25, 1-(4-Trifluoromethylphenyl)-3-[1-(1H-pyrrolo[2,3-b]pyridin-3-ylmethyl)-1H-indol-4-yl]urea hydrochloride]",≥ 70,A (the percentage of kinase activity remains is below 70%)
"Cl.O=C(Nc1ccccc1C(F)(F)F)Nc1cccc2c1ccn2Cc1c[nH]c2ncccc12 [Example 23, 1-(2-Trifluoromethylphenyl)-3-[1-(1H-pyrrolo[2,3-b]pyridin-3-ylmethyl)-1H-indol-4-yl]urea hydrochloride]",< 70,A (the percentage of kinase activity remains is below 70%)
"O=C(Nc1ccc(Cl)cc1)Nc1cccc2c1ccn2Cc1ccnc2[nH]ccc12 [Example 39, 1-(4-Chlorophenyl)-3-[1-(1H-pyrrolo[2,3-b]pyridin-4-ylmethyl)-1H-indol-4-yl]urea hydrochloride]",< 70,A (the percentage of kinase activity remains is below 70%)
"COc1ccccc1NC(=O)Nc1cccc2c1ccn2Cc1ccnc2[nH]ccc12.Cl [Example 46, 1-(2-Methoxyphenyl)-3-[1-(1H-pyrrolo[2,3-b]pyridin-4-ylmethyl)-1H-indol-4-yl]urea hydrochloride]",≥ 70,B (the percentage is greater or equal to 70%)
